The text below walks through data of PMC3315146 (The Journal of General Physiology, 2012).

For assay [1], the target named is T1, Kcv L70C (Paramecium bursaria Chlorella virus 1, UniProt Q84568, L70C).
T1 sequence (Q84568 1-94 L70C): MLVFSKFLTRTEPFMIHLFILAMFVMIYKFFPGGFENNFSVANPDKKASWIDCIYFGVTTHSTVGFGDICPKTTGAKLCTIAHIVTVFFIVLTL
Kind of assay: MTSET cysteine modification, single-channel conductance of L70C. The conditions noted are these: for conductance reduced by: L70C, 0.2 mM cis MTSET for 5 min. The format is biochemical, chlorella virus PBCV-1.

Assay [2] concerns the target T2, wt-Kcv (Paramecium bursaria Chlorella virus 1, UniProt Q84568).
T2 sequence (Q84568 1-94): T1 sequence (Q84568 1-94 L70C) with C70L
Kind of assay: MTSET control, single-channel conductance of wt-Kcv. The class given is biochemical, chlorella virus PBCV-1. The conditions noted are these: 0.2 mM cis MTSET.

Assay [3] has as its system KcsA Y82C. The conditions noted are these: reverse direction unchanged, ref Heginbotham et al., 1999; cited from earlier work.

Positions count from the first letter of the chain named.

Regarding `C[N+](C)(C)CCSS(C)(=O)=O` [MTSET, (2-(trimethylammonium)ethyl) methanethiosulfonate], the “conductance reduced by” value in assay [1] (60 mV) was determined as 30%; in assay [1] (−60 mV), 78%. Besides, the effect on conductance result in assay [1] (MTSET added in the trans solution (not depicted)) is “not found to reduce the conductance”. For the same molecule, the conductance change result in assay [2] is recorded as “did not observe the conductance change”. Moreover, the “reduction of cis to trans current” value in assay [3] was 60%.
